Like-named read-outs stand apart in the source and are kept apart here.
Tests used:
[1] = tested on: Acinetobacter baumannii strains; test: Minimum inhibitory concentration (CLSI M07), Example 2, 20 strains; type: cell-based; settings: for MIC: read-out: MIC
Method: The minimum inhibitory concentration (MIC) was determined in accordance with the requirements of the Clinical and Laboratory Standards Institute (CLSI) M07 (for aerobic bacteria).
3.1 The compounds were diluted with DMSO up to 100 times of the highest concentration tested.
The steps of manual dilution are as follows (example): firstly, the compound or antibiotic was diluted to 100 times of the maximum final concentration tested, then 60 μL of compound mother liquor was added to the first column of the 96-well plate, and 30 μL of DMSO was added to each well in the second to the 12th column; 30 μL of the liquid was transferred from the first column to the second column. After being pipetted up and down to even, 30 μL was transferred to the third column, and was diluted in sequence at a 2-fold gradient for a total of 10 times; then 30 μL was removed from each well in the 11th column, then a compound solution diluted at 2-fold gradient was obtained and 1 μL was transferred to a 96-well test plate.
Aerobic bacteria: the strains were inoculated on MHA one day in advance and incubated overnight at 37° C. On the day of the assay, 5-6 single colonies were picked and suspended evenly in saline, and the bacterial concentration was adjusted to the turbidity of 0.5 McFarland standard (concentration is about 1×10^8 CFU/mL). The bacterial suspension was diluted at 200-fold with the corresponding liquid culture medium (Table 1), i.e., the bacterial concentration was ~5×10^5 CFU/ml, and then 100 μL of the liquid was transferred to a 96-well round bottom plate (the 96-well plate with compound prepared in 4.2, Echo method) to obtain the test plate. If the compound was manually diluted, then 99 μL of the solution was transferred into a 96-well round bottom plate. The 96-well round bottom plate obtained above was placed into an incubator at 37° C. and 85% humidity to incubate for 20 h.

[2] = Pharmacokinetics in plasma and bronchoalveolar lavage fluid of female CD-1 mice; type: in vivo; settings: mouse, female CD-1 mice
Method: An appropriate amount of the test drug was accurately weighed and mixed with the appropriate volume of vehicle (5% DMSO+0.5% Tween 80 in normal saline) to obtain a clear solution for the test in Table 9. The formulation solution for injection was prepared to sterile filtration through a 0.22 μm filter prior to administration. The mice were dosed with the drug within 30 min after the formulated solution for injection was prepared. A 1.5 mL of the formulation solution for injection was transferred into a polypropylene microcentrifuge tube for dose verification by LC/UV or LC-MS/MS.
All blood samples were transferred to pre-frozen EDTA-K2 tubes and placed on wet ice until centrifugation. […]
Plasma: approximately 100 μL of blood sample was transferred into pre-cooled commercial EDTA-K2 tubes and placed on wet ice until centrifugation. After the blood samples were centrifuged at approximately 4° C. and 3, 200 g for 10 min, plasma was collected and transferred to pre-labeled 96-well plates or polypropylene tubes, flash frozen on dry ice, and stored at ≤−60° C. until the analysis by LC-MS/MS.
Serum: approximately 100 μL of blood sample was transferred into a tube without anticoagulant and placed on wet ice for approximately 30 min and centrifuged at 4° C. and 3,000 g for 10 min, and the serum was collected and transferred into pre-labeled PP tubes placed on wet ice. After the completion of all the collections, serum samples were stored at −60° C. until being sent to the animal experimental team to determine urea concentration.
Bronchoalveolar lavage fluid (BALF): pre-cooled tracheo-alveolar lavage fluid was injected into the trachea or predefined bronchi. After a full expansion of the lung tissue, the lavage fluid was slowly drawn out with a syringe 30 s later. The lung was lavaged three times. During the last lavage, the lung tissue was gently squeezed to restore the fluid. To prevent contamination of other lung tissues, the corresponding bronchi were ligated. Both lungs of the mice were perfused with 0.8 mL.
[…] Approximately 200 μL of the BALF samples were transferred into a polypropylene tube, rapidly frozen on dry ice, maintained at ≤−60° C., and sent to the animal experimental team to determine urea concentration. The remaining BALF samples (approximately 600 μL) were rapidly frozen on dry ice and maintained at ≤−60° C. until being submitted for drug concentration analysis by LC-MS/MS.

In the case of `CC1(C)[C@H](C(=O)[O][Na+])N2C(=O)C[C@H]2S1(=O)=O` [Sulbactam sodium, sulbactam sodium], the MIC ([1]; Acinetobacter baumannii, ATCC17978, strain ATCC 17978) was 8 µg/mL, the MIC ([1]; Acinetobacter baumannii, ATCC19606, strain ATCC 19606) was 2 µg/mL and the MIC ([1]; Acinetobacter baumannii, ATCCBAA1605, strain ATCC-BAA-1605) was 32 µg/mL. For the same molecule, the MIC ([1]; Acinetobacter baumannii, ATCCBAA1789, strain ATCC-BAA-1789) was 4 µg/mL, the MIC ([1]; Acinetobacter baumannii, ATCCBAA1790, strain ATCC-BAA-1790) was 16 µg/mL and the MIC ([1]; Acinetobacter baumannii, ATCCBAA1791, strain ATCC-BAA-1791) was 8 µg/mL. It also gave an MIC ([1]; Acinetobacter baumannii, ATCCBAA1792, strain ATCC-BAA-1792) of 32 µg/mL, an MIC ([1]; Acinetobacter baumannii, ATCCBAA1793, strain ATCC-BAA-1793) of 32 µg/mL and an MIC ([1]; Acinetobacter baumannii, ATCCBAA1794, strain ATCC-BAA-1794) of 8 µg/mL. The MIC ([1]; Acinetobacter baumannii, ATCCBAA1795, strain ATCC-BAA-1795) was 64 µg/mL, the MIC ([1]; Acinetobacter baumannii, ATCCBAA1796, strain ATCC-BAA-1796) was 16 µg/mL and the MIC ([1]; Acinetobacter baumannii, ATCCBAA1797, strain ATCC-BAA-1797) was 8 µg/mL. It also gave an MIC ([1]; Acinetobacter baumannii, ATCCBAA1798, strain ATCC-BAA-1798) of 16 µg/mL, an MIC ([1]; Acinetobacter baumannii, ATCCBAA1799, strain ATCC-BAA-1799) of 64 µg/mL and an MIC ([1]; Acinetobacter baumannii, ATCCBAA1800, strain ATCC-BAA-1800) of 32 µg/mL. The MIC ([1]; Acinetobacter baumannii, strain ARLG-1791) was 32 µg/mL, the MIC ([1]; Acinetobacter baumannii, strain ARLG-1809) was 32 µg/mL and the MIC ([1]; Acinetobacter baumannii, strain ARLG-1852) was 16 µg/mL. The MIC ([1]; Acinetobacter baumannii, strain ARLG-1853) was 32 µg/mL, the MIC ([1]; Acinetobacter baumannii, strain ARLG-1881) was 128 µg/mL and the MIC50 ([1]; Acinetobacter baumannii, Example 2, 20 strains, read-out: MIC50) was 32 µg/mL. For the same molecule, the MIC90 ([1]; Acinetobacter baumannii, Example 2, 20 strains, read-out: MIC90) was 64 µg/mL, the MIC range ([1]; Example 2, 20 strains) was 2 to 128 µg/mL and the MIC of this strain BAA-1795 (component in the combination) ([1]; strain BAA-1795) was 8 µg/mL. The “MIC of the strain BAA-1795 (component in the combination)” value ([1]; strain BAA-1795, sulbactam/avibactam 4:1, concentration of the named component) was 8 µg/mL, the Kp ([2]; BALF/plasma, intravenous, 150 mg/kg, BALF column, read-out: AUC Ratio) was 0.0248 and the AUC(0-t) ([2]; bronchoalveolar lavage fluid (BALF), intravenous dripping 150 mg/kg, BALF, read-out: AUC0-last, BALF) was 1310 ng·h/mL. The Cmax ([2]; bronchoalveolar lavage fluid (BALF), intravenous dripping 150 mg/kg, BALF, read-out: Cmax, mean BALF concentration) was 617 ng/mL, the MRT last ([2]; bronchoalveolar lavage fluid (BALF), intravenous dripping 150 mg/kg, BALF, read-out: MRT0-last, BALF) was 103 min and the half-life ([2]; bronchoalveolar lavage fluid (BALF), intravenous dripping 150 mg/kg, BALF, read-out: T1/2, BALF (converted)) was 43.5 min. For the same molecule, the Tmax ([2]; bronchoalveolar lavage fluid (BALF), intravenous dripping 150 mg/kg, BALF, read-out: Tmax, BALF) was 180 min, the clearance ([2]; intravenous dripping 150 mg/kg, plasma) was 47.2 mL/min/kg and the AUC(0-t) ([2]; intravenous dripping 150 mg/kg, plasma, read-out: AUC0-last, plasma) was 52900 ng·h/mL. For the same molecule, the Cmax ([2]; intravenous dripping 150 mg/kg, plasma, read-out: Cmax, mean plasma concentration) was 19600 ng/mL, the MRT last ([2]; intravenous dripping 150 mg/kg, plasma, read-out: MRT0-last, plasma) was 26.4 min and the half-life ([2]; intravenous dripping 150 mg/kg, plasma, read-out: T1/2, plasma (converted)) was 52.4 min. For the same molecule, the Tmax ([2]; intravenous dripping 150 mg/kg, plasma, read-out: Tmax, plasma) was 60 min and the Vd ([2]; intravenous dripping 150 mg/kg, plasma, read-out: Vdss) was 1.26 L/kg.

Reference: patent US12697325B2 (TENNOR THERAPEUTICS (SUZHOU) LIMITED, priority 2021, dated 2026)
